According to PMC11470957, “Principles of paralog-specific targeted protein degradation engaging the C-degron E3 KLHDC2” (Nature Communications, 2024):
Where two headings read alike, the source gives them in different places.

Experiments:
BRD2 = BRD2 (Homo sapiens, UniProt P25440); test: Western blot of BRD2 levels after cellular dosing
[1] = test system: BD2 domain from BRD2, BRD3, or BRD4 / neddylated CRL2^KLHDC2; test: Pulse-chase PROTAC-dependent ubiquitylation of BRD BD2 domains by neddylated CRL2^KLHDC2; conditions: prodrug tested
[2] = U2OS, read-out: BRD2 level, Western blot quantification (DMSO = 100), Fig S6d, U2OS KO/rescue Dose Response
[3] = read-out: BRD2 level, Western blot quantification (DMSO = 100), Fig S6e, PC3 KO/rescue Dose Response

BRD2, sequence (P25440 whole entry, the tested form may be a part): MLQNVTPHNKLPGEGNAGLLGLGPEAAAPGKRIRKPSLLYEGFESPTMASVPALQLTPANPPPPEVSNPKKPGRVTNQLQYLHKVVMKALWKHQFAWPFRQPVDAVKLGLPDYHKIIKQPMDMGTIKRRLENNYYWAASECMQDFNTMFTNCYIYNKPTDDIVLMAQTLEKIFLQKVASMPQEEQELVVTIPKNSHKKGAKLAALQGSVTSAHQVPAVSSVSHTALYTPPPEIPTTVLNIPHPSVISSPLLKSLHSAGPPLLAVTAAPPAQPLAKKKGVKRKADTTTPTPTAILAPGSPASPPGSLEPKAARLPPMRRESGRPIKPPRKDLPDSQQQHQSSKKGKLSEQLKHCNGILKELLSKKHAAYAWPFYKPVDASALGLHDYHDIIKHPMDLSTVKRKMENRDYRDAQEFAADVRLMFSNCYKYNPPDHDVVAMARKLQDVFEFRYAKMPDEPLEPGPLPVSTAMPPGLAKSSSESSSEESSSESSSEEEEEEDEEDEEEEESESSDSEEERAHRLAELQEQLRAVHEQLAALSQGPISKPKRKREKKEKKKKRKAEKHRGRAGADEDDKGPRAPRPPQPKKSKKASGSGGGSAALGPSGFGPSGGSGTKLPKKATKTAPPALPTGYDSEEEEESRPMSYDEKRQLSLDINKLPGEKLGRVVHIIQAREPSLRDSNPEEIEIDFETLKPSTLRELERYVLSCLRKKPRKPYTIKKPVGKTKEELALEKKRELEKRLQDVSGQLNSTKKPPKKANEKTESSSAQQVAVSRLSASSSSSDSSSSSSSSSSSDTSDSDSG

## COC(=O)CNC(=O)Cc1csc(-c2ccc3cccc(OCCN4CCN(C(=O)C[C@@H]5N=C(c6ccc(Cl)cc6)c6c(sc(C)c6C)-n6c(C)nnc65)CC4)c3c2)n1 [SJ46420]
BRD2; SK-BR-3, 4 h, read-out: BRD2 level relative to DMSO (100%), SKBR3, 5µM, 4hr, Fig S6g
  remaining activity at 5 µM: 83 ± 6.1%
BRD2; SK-BR-3, 4 h, read-out: BRD2 level relative to DMSO (100%), SKBR3, 5µM, 4hr, Fig S6j
  remaining activity at 5 µM: 85 ± 7.3%
BRD2; SK-BR-3, 4 h, read-out: BRD2 level, Western blot quantification (DMSO = 100), Fig S6g, SKBR3 Time course, 1 uM, 4hr
  remaining activity at 1 µM: 79.4%
BRD2; SK-BR-3, 4 h, read-out: BRD2 level, Western blot quantification (DMSO = 100), Fig S6g, SKBR3 Time course, 5 uM, 4hr
  remaining activity at 5 µM: 79.5%
BRD2; SK-BR-3, 8 h, read-out: BRD2 level relative to DMSO (100%), SKBR3, 1µM, 8hr, Fig S6g
  remaining activity at 1 µM: 81 ± 7.6%
BRD2; SK-BR-3, 8 h, read-out: BRD2 level relative to DMSO (100%), SKBR3, 5µM, 8hr, Fig S6g
  remaining activity at 5 µM: 90 ± 9.8%
BRD2; SK-BR-3, 8 h, read-out: BRD2 level, Western blot quantification (DMSO = 100), Fig S6g, SKBR3 Time course, 1 uM, 8hr
  remaining activity at 1 µM: 76.3%
BRD2; SK-BR-3, 8 h, read-out: BRD2 level, Western blot quantification (DMSO = 100), Fig S6g, SKBR3 Time course, 5 uM, 8hr
  remaining activity at 5 µM: 97.9%
BRD2; SK-BR-3, read-out: BRD2 level, Western blot quantification (DMSO = 100), Fig S6i, SKBR3, 5uM
  remaining activity at 5 µM: 90.6%
BRD2; U2OS KO/Rescue, 24 h dose
  BRD2 Dmax: ~ 100%
BRD2; U2OS, 2 h, read-out: BRD2 level relative to DMSO (100%), U2OS, 5µM, 2hr, Fig S6h
  remaining activity at 5 µM: 102 ± 6.9%
BRD2; U2OS, 2 h, read-out: BRD2 level, Western blot quantification (DMSO = 100), Fig S6h, U2OS Time course, 5uM, 2hr
  remaining activity at 5 µM: 108%
BRD2; U2OS, 4 h, read-out: BRD2 level relative to DMSO (100%), U2OS, 5µM, 4hr, Fig S6h
  remaining activity at 5 µM: 104 ± 6.4%
BRD2; U2OS, 4 h, read-out: BRD2 level, Western blot quantification (DMSO = 100), Fig S6h, U2OS Time course, 5uM, 4hr
  remaining activity at 5 µM: 109%
BRD2; U2OS, 8 h, read-out: BRD2 level relative to DMSO (100%), U2OS, 5µM, 8hr, Fig S6i
  remaining activity at 5 µM: 120 ± 3.4%
BRD2; U2OS, 8 h, read-out: BRD2 level relative to DMSO (100%), U2OS, 5µM, 8hr, Fig S6h
  remaining activity at 5 µM: 106 ± 8.4%
BRD2; U2OS, 8 h, read-out: BRD2 level, Western blot quantification (DMSO = 100), Fig S6h, U2OS Time course, 5uM, 8hr
  remaining activity at 5 µM: 112%
BRD2; U2OS, 24 h, read-out: BRD2 level relative to DMSO (100%), U2OS DC2KO (KLHDC2 knockout), 5µM, 24 h, Fig 6b
  remaining activity at 5 µM: 77 ± 2%
BRD2; U2OS, 24 h, read-out: BRD2 level relative to DMSO (100%), U2OS KO/Rescue, 0.16µM, 24 h, Fig S6d
  remaining activity at 0.16 µM: 94 ± 6.9%
BRD2; U2OS, 24 h, read-out: BRD2 level relative to DMSO (100%), U2OS KO/Rescue, 0.31µM, 24 h, Fig S6d
  remaining activity at 0.31 µM: 77 ± 6.6%
BRD2; U2OS, 24 h, read-out: BRD2 level relative to DMSO (100%), U2OS KO/Rescue, 0.63µM, 24 h, Fig S6d
  remaining activity at 0.63 µM: 63 ± 3.8%
BRD2; U2OS, 24 h, read-out: BRD2 level relative to DMSO (100%), U2OS KO/Rescue, 1µM + co-dosing 1µM MLN4924, 24 h, Fig 6d
  remaining activity at 1 µM: 350 ± 120%
BRD2; U2OS, 24 h, read-out: BRD2 level relative to DMSO (100%), U2OS KO/Rescue, 1µM, 24 h, Fig 6c
  remaining activity at 1 µM: 88 ± 8.4%
BRD2; U2OS, 24 h, read-out: BRD2 level relative to DMSO (100%), U2OS KO/Rescue, 1µM, 24 h, Fig 6d
  remaining activity at 1 µM: 68 ± 17%
BRD2; U2OS, 24 h, read-out: BRD2 level relative to DMSO (100%), U2OS KO/Rescue, 1.3µM, 24 h, Fig S6d
  remaining activity at 1.3 µM: 54 ± 6.7%
BRD2; U2OS, 24 h, read-out: BRD2 level relative to DMSO (100%), U2OS KO/Rescue, 2.5µM, 24 h, Fig S6d
  remaining activity at 2.5 µM: 37 ± 9.7%
BRD2; U2OS, 24 h, read-out: BRD2 level relative to DMSO (100%), U2OS KO/Rescue, 5µM, 24 h, Fig S6d
  remaining activity at 5 µM: 12 ± 2.2%
BRD2; U2OS, 24 h, read-out: BRD2 level relative to DMSO (100%), U2OS, 5µM, 24 h, Fig 6b
  remaining activity at 5 µM: 87 ± 5%
BRD2; U2OS, 24 h, read-out: BRD2 level relative to DMSO (100%), U2OS, 5µM, 24hr, Fig S6h
  remaining activity at 5 µM: 77 ± 4.3%
BRD2; U2OS, 24 h, read-out: BRD2 level, Western blot quantification (DMSO = 100), Fig S6h, U2OS Time course, 5uM, 24hr
  remaining activity at 5 µM: 79.8%
BRD2; U2OS, read-out: BRD2 (DMSO = 100), U2OS KO/Rescue cells, Log SJ46420 (uM) 1.59176, Rep1, Rep2
  remaining activity at 1.59176 µM: 102%
BRD2; U2OS, read-out: BRD2 (DMSO = 100), U2OS KO/Rescue cells, Log SJ46420 (uM) 1.89279, Rep1, Rep2
  remaining activity at 1.89279 µM: 99%
BRD2; U2OS, read-out: BRD2 (DMSO = 100), U2OS KO/Rescue cells, Log SJ46420 (uM) 2.19382, Rep1, Rep2
  remaining activity at 2.19382 µM: 82.2%
BRD2; U2OS, read-out: BRD2 (DMSO = 100), U2OS KO/Rescue cells, Log SJ46420 (uM) 2.49485, Rep1, Rep2
  remaining activity at 2.49485 µM: 66.6%
BRD2; U2OS, read-out: BRD2 (DMSO = 100), U2OS KO/Rescue cells, Log SJ46420 (uM) 2.79588, Rep1, Rep2
  remaining activity at 2.79588 µM: 49.5%
BRD2; U2OS, read-out: BRD2 (DMSO = 100), U2OS KO/Rescue cells, Log SJ46420 (uM) 3.09691, Rep1, Rep2
  remaining activity at 3.09691 µM: 30.5%
BRD2; U2OS, read-out: BRD2 (DMSO = 100), U2OS KO/Rescue cells, Log SJ46420 (uM) 3.39794, Rep1, Rep2
  remaining activity at 3.39794 µM: 13.8%
BRD2; U2OS, read-out: BRD2 (DMSO = 100), U2OS KO/Rescue cells, Log SJ46420 (uM) 3.69897, Rep1, Rep2
  remaining activity at 3.69897 µM: 1.16%
BRD2; U2OS, read-out: BRD2 Dmax, U2OS KO/Rescue, 24 h dose
  Dmax: 99.3%
BRD2; U2OS, read-out: BRD2 level, Western blot quantification (DMSO = 100), Fig 6b, U2OS, 5 uM
  remaining activity at 5 µM: 90.7%
BRD2; U2OS, read-out: BRD2 level, Western blot quantification (DMSO = 100), Fig S6i, U2OS, 5uM
  remaining activity at 5 µM: 118%
BRD2; [2]
  remaining activity at 0.156 µM: 83.3%
  remaining activity at 0.313 µM: 100%
  remaining activity at 0.625 µM: 81.2%
  remaining activity at 1.25 µM: 85.7%
BRD2; U2OS, read-out: BRD2 level, Western blot quantification (DMSO = 100), Fig S6d, U2OS KO/rescue Dose Response, 2.5 uM
  remaining activity at 2.5 µM: 86.6%
BRD2; U2OS, read-out: BRD2 level, Western blot quantification (DMSO = 100), Fig S6d, U2OS KO/rescue Dose Response, 5 uM
  remaining activity at 5 µM: 86.5%
BRD2; read-out: BRD2 Dmax, PC3, 24 h dose
  Dmax: 19.5%
BRD2; read-out: BRD2 level, Western blot quantification (DMSO = 100), Fig 6b, KO/Rescue, 5 uM
  remaining activity at 5 µM: 78.2%
BRD2; [3]
  remaining activity at 0.156 µM: 99%
  remaining activity at 0.313 µM: 82.2%
  remaining activity at 0.625 µM: 66.6%
  remaining activity at 1.25 µM: 49.5%
BRD2; read-out: BRD2 level, Western blot quantification (DMSO = 100), Fig S6e, PC3 KO/rescue Dose Response, 2.5 uM
  remaining activity at 2.5 µM: 30.5%
BRD2; read-out: BRD2 level, Western blot quantification (DMSO = 100), Fig S6e, PC3 KO/rescue Dose Response, 5 uM
  remaining activity at 5 µM: 13.8%
BRD2; read-out: BRD2 level, Western blot quantification (DMSO = 100), Fig S6e, PC3 KO/rescue Dose Response, 10uM
  remaining activity at 10 µM: 1.16%
[1]
  ubiquitylation of BRD3BD2 in reconstituted biochemical assays: unable to promote ubiquitylation
